Assay results: the supplement of paper PMC11061612

Legend:
Test in all cases: Bliss excess, mean over the matrix (fraction); higher = more synergy
Saos-2 (Osteosarcoma) = system: Saos-2 (Osteosarcoma)
How it was run: (§1)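 After 24 hours at 37°C and 5% CO2 in 1536-well plates, cells in DMEM/F12 or RPMI plus 10% FBS received two-drug dose matrices for 72 hours. Viability came from CellTiter-Glo 2.0 luminescence and was scaled as inhibition, anchored at 0 by vehicle wells and at 1 by blank wells. Combination Emax is taken as the second-highest inhibition in the matrix, and Bliss excess as the observed combination effect less EA + EB − EA·EB, with EA and EB the single-agent effects.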

MCF7 (Breast Carcinoma) = system: MCF7 (Breast Carcinoma)
How it was run: as §1

[1] = system: HCC1143 (Breast Carcinoma)
How it was run: as §1

D-392MG (Glioblastoma) = system: D-392MG (Glioblastoma)
How it was run: as §1

[2] = system: PA-TU-8902 (Pancreatic Carcinoma)
How it was run: as §1

[3] = system: YT (Other Blood Carcinomas)
How it was run: as §1

[4] = system: HLE (Hepatocellular Carcinoma)
How it was run: as §1

SK-MEL-1 (Melanoma) = system: SK-MEL-1 (Melanoma)
How it was run: as §1

[5] = system: KG-1 (Acute Myeloid Leukemia)
How it was run: as §1

[6] = system: CAL-39 (Other Solid Carcinomas)
How it was run: as §1

[7] = system: DOK (Oral Cavity Carcinoma)
How it was run: as §1

[8] = system: SK-LMS-1 (Other Solid Carcinomas)
How it was run: as §1

For `CN(C)CCCOc1ccc(-c2ccc3ncc4c(c3c2)n(C2CCOCC2)c(=O)n4C)cn1` [AZD0156] + C=CCn1c(=O)c2cnc(Nc3ccc(N4CCN(C)CC4)cc3)nc2n1-c1cccc(C(C)(C)O)n1 [AZD1775] (first compound max 1 µM, partner max 1 µM), the Bliss excess (Saos-2 (Osteosarcoma)) was -0.0379, the Bliss excess (MCF7 (Breast Carcinoma)) was -0.0338 and the Bliss excess [1] was -0.0802. The Bliss excess (D-392MG (Glioblastoma)) was -0.0461, the Bliss excess [2] was -0.0339 and the Bliss excess [3] was -0.0273. The Bliss excess [4] was -0.026, the Bliss excess (SK-MEL-1 (Melanoma)) was 0.0161 and the Bliss excess [5] was -0.0194. It also gave a Bliss excess [6] of -0.0326, a Bliss excess [7] of -0.0143 and a Bliss excess [8] of -0.0203.
With `CN(C)CCCOc1ccc(-c2ccc3ncc4c(c3c2)n(C2CCOCC2)c(=O)n4C)cn1` [AZD0156] + CCN(CCO)CCCOc1ccc2c(Nc3cc(CC(=O)Nc4cccc(F)c4)[nH]n3)ncnc2c1 [AZD2811] (first compound max 1 µM, 7x7, partner max 1 µM) the Bliss excess (Saos-2 (Osteosarcoma)) was 0.0088, the Bliss excess (MCF7 (Breast Carcinoma)) was -0.0114 and the Bliss excess [1] was 0.0372. It also gave a Bliss excess (D-392MG (Glioblastoma)) of -0.0556, a Bliss excess [2] of -0.0223 and a Bliss excess [3] of 0.0041. It also gave a Bliss excess [4] of 0.0189, a Bliss excess (SK-MEL-1 (Melanoma)) of -0.0356 and a Bliss excess [5] of -0.0001. For the same compound, the Bliss excess [6] was 0.0177, the Bliss excess [7] was -0.0527 and the Bliss excess [8] was 0.0032.
`CN(C)CCCOc1ccc(-c2ccc3ncc4c(c3c2)n(C2CCOCC2)c(=O)n4C)cn1` [AZD0156] + C[C@@H]1COCCN1C2=NC(=NC(=C2)C3(CC3)[S@](=N)(=O)C)C4=C5C=CNC5=NC=C4 [AZD6738] (first compound max 1 µM, 7x7, partner max 10 µM) was tested, and the Bliss excess (Saos-2 (Osteosarcoma)) was -0.0133, the Bliss excess (MCF7 (Breast Carcinoma)) was 0.0578 and the Bliss excess [1] was 0.0323. For the same compound, the Bliss excess (D-392MG (Glioblastoma)) was -0.0549, the Bliss excess [2] was -0.0007 and the Bliss excess [3] was 0.0104. The Bliss excess [4] was 0.0261, the Bliss excess (SK-MEL-1 (Melanoma)) was -0.0216 and the Bliss excess [5] was 0.128. It also gave a Bliss excess [6] of 0.0017, a Bliss excess [7] of -0.0395 and a Bliss excess [8] of 0.0122.
`C=CCn1c(=O)c2cnc(Nc3ccc(N4CCN(C)CC4)cc3)nc2n1-c1cccc(C(C)(C)O)n1` [AZD1775] + C[C@@H]1COCCN1C2=NC(=NC(=C2)C3(CC3)[S@](=N)(=O)C)C4=C5C=CNC5=NC=C4 [AZD6738] (first compound max 1 µM, partner max 10 µM) gave a Bliss excess (Saos-2 (Osteosarcoma)) of 0.0071, a Bliss excess (MCF7 (Breast Carcinoma)) of 0.0332 and a Bliss excess [1] of 0.0108. For the same compound, the Bliss excess (D-392MG (Glioblastoma)) was -0.04, the Bliss excess [2] was 0.0315 and the Bliss excess [3] was 0.0305. It also gave a Bliss excess [4] of -0.0148, a Bliss excess (SK-MEL-1 (Melanoma)) of -0.0125 and a Bliss excess [5] of -0.0218. The Bliss excess [6] was 0.0822, the Bliss excess [7] was 0.0081 and the Bliss excess [8] was 0.0039.
For `C=CCn1c(=O)c2cnc(Nc3ccc(N4CCN(C)CC4)cc3)nc2n1-c1cccc(C(C)(C)O)n1` [AZD1775] + O=C(c1cc(Cc2n[nH]c(=O)c3ccccc23)ccc1F)N1CCN(C(=O)C2CC2)CC1 [Olaparib] (first compound max 1 µM, partner max 10 µM), the Bliss excess (Saos-2 (Osteosarcoma)) was -0.0422, the Bliss excess (MCF7 (Breast Carcinoma)) was 0.003 and the Bliss excess [1] was -0.0675. For the same compound, the Bliss excess (D-392MG (Glioblastoma)) was -0.0369, the Bliss excess [2] was -0.0327 and the Bliss excess [3] was -0.008. It also gave a Bliss excess [4] of -0.0567, a Bliss excess (SK-MEL-1 (Melanoma)) of -0.0054 and a Bliss excess [5] of -0.0195. It also gave a Bliss excess [6] of -0.0223, a Bliss excess [7] of -0.0236 and a Bliss excess [8] of 0.0065.
`CCN(CCO)CCCOc1ccc2c(Nc3cc(CC(=O)Nc4cccc(F)c4)[nH]n3)ncnc2c1` [AZD2811] + C=CCn1c(=O)c2cnc(Nc3ccc(N4CCN(C)CC4)cc3)nc2n1-c1cccc(C(C)(C)O)n1 [AZD1775] (first compound max 1 µM, partner max 1 µM) gave a Bliss excess (Saos-2 (Osteosarcoma)) of 0.029, a Bliss excess (MCF7 (Breast Carcinoma)) of 0.0165 and a Bliss excess [1] of 0.0147. It also gave a Bliss excess (D-392MG (Glioblastoma)) of -0.0945, a Bliss excess [2] of -0.006 and a Bliss excess [3] of 0.0367. It also gave a Bliss excess [4] of 0.09, a Bliss excess (SK-MEL-1 (Melanoma)) of -0.0323 and a Bliss excess [5] of 0.0591. The Bliss excess [6] was -0.0078, the Bliss excess [7] was -0.0017 and the Bliss excess [8] was 0.0502.
In the case of `CCN(CCO)CCCOc1ccc2c(Nc3cc(CC(=O)Nc4cccc(F)c4)[nH]n3)ncnc2c1` [AZD2811] + C[C@@H]1COCCN1C2=NC(=NC(=C2)C3(CC3)[S@](=N)(=O)C)C4=C5C=CNC5=NC=C4 [AZD6738] (first compound max 1 µM, 7x7, partner max 10 µM), the Bliss excess (Saos-2 (Osteosarcoma)) is reported as -0.0218, the Bliss excess (MCF7 (Breast Carcinoma)) is reported as -0.0565 and the Bliss excess [1] is reported as -0.0291. It also gave a Bliss excess (D-392MG (Glioblastoma)) of -0.0537, a Bliss excess [2] of -0.0532 and a Bliss excess [3] of -0.0204. For the same compound, the Bliss excess [4] was 0.0179, the Bliss excess (SK-MEL-1 (Melanoma)) was -0.0409 and the Bliss excess [5] was -0.0332. For the same compound, the Bliss excess [6] was 0.0015, the Bliss excess [7] was -0.0502 and the Bliss excess [8] was -0.0249.
For `CCN(CCO)CCCOc1ccc2c(Nc3cc(CC(=O)Nc4cccc(F)c4)[nH]n3)ncnc2c1` [AZD2811] + O=C(c1cc(Cc2n[nH]c(=O)c3ccccc23)ccc1F)N1CCN(C(=O)C2CC2)CC1 [Olaparib] (first compound max 1 µM, 7x7, partner max 10 µM), the Bliss excess (Saos-2 (Osteosarcoma)) was 0.0395, the Bliss excess (MCF7 (Breast Carcinoma)) was -0.0023 and the Bliss excess [1] was 0.015. For the same compound, the Bliss excess (D-392MG (Glioblastoma)) was -0.0695, the Bliss excess [2] was 0.0081 and the Bliss excess [3] was 0.0623. The Bliss excess [4] was 0.004, the Bliss excess (SK-MEL-1 (Melanoma)) was -0.0325 and the Bliss excess [5] was 0.0382. It also gave a Bliss excess [6] of 0.0017, a Bliss excess [7] of -0.0086 and a Bliss excess [8] of 0.0076.
`CN(CCO)CC[C@H](CSc1ccccc1)Nc1ccc(S(=O)(=O)NC(=O)c2ccc(N3CCC([C@@H](O)c4ccccc4-c4ccc(Cl)cc4)CC3)cc2)cc1S(=O)(=O)C(F)(F)F` [AZD4320] + C1CN(CCC1(C(=O)N[C@@H](CCO)C2=CC=C(C=C2)Cl)N)C3=NC=NC4=C3C=CN4 [Capivasertib] (first compound max 1 µM, 7x7, partner max 3 µM) showed a Bliss excess (Saos-2 (Osteosarcoma)) of 0.0035, a Bliss excess (MCF7 (Breast Carcinoma)) of -0.0383 and a Bliss excess [1] of -0.0314. The Bliss excess (D-392MG (Glioblastoma)) was -0.0649, the Bliss excess [2] was -0.0448 and the Bliss excess [3] was 0.0135. It also gave a Bliss excess [4] of -0.126, a Bliss excess (SK-MEL-1 (Melanoma)) of -0.0281 and a Bliss excess [5] of 0.0226. It also gave a Bliss excess [6] of -0.0296, a Bliss excess [7] of -0.0554 and a Bliss excess [8] of -0.0225.
